Experimental data reported in patent publication US20220202624A1, “SELF-ADHESIVE SILICONE GEL LOADED WITH MICROPARTICLES, PARTICLES WITH IMPROVED ADHESION” (priority 2019, published 2022).

Assays:
[1] = Gel consistency: elastic shear modulus G′ by rheometer; type: physicochemical; settings: 4.8% Isopropyl Myristate in gel, vs pure gel (Table 7)
Excerpt: 1. Preparation of Materials for Performance Characterization. • Characterization of rheological properties: for these characterizations, a ˜0.6 g sample of non-crosslinked SACSG should be placed in the measuring cell. In the case of mixtures obtained by the direct mode, a sample of the degassed mixture whose preparation has just been described is used. If Parts A′ and B′ which have been obtained by the indirect method are available, both Parts A′ and B′ are rehomogenised if necessary, equivalent masses of A′ and B′ are weighed and mixed with a spatula; after degassing at 20-50 mbar at room temperature until the bubbles are eliminated (about 10 minutes), a sample of the mixture may be taken and placed in the measuring cell. […]
The consistency of the gels is characterized by their elastic shear modulus, which is measured as follows: • rheometer: Thermofisher RS 6000. • Plan-Plan cell: rotor with 20 mm radius, rotor/stator gap=0.5 mm. • mode: imposed stress=10 Pa. • oscillation frequency: 1 Hz. • temperature: sample installation at 30°. • closing of the cell in two steps: 3 mm/mn until D=1.5 mm, then 0.15 mm/mn until D=0.5 mm. • temperature rise to 70° in 60 s. • measurement G′-G″ at 70° for 4000 s, return to 30°. […]

[2] = Miscibility / solubility of added substances in self-adhesive silicone gel (SASG); settings: liquid in SASG

Row | drop of G′ value [1] | miscibility with SASG [2] | Compound
1 | 20% | – | CCCCCCCCCCCCCC(=O)OC(C)C [Isopropyl Myristate]
2 | – | 12-15% | COC(=O)c1ccccc1O [Methyl Salicylate]
